The values below come from ChEMBL document CHEMBL1795342, “Discovery of S1P agonists with a dihydronaphthalene scaffold” (Bioorg Med Chem Lett, 2011).

Structures are written as SMILES. pEC50: −log10 of the molar value.

The nature of data set [1]: Half life in rat at 1 mg/kg, iv. Conditions: in vivo. It is filed as ADME, organism-based. On the set-up: dose 1 mg/kg, route intravenous.
The nature of data set [2]: AUC (infinity) in rat at 1 mg/kg, po. It is filed as ADME, organism-based. On the set-up: time infinity, dose 1 mg/kg, route oral. Conditions: plasma.
Data set [3] in a line: AUC (infinity) in rat at 1 mg/kg, iv. It is filed as ADME, organism-based. Further details: time infinity, dose 1 mg/kg, route intravenous. Conditions: plasma.
A short description of data set [4]: Half life in rat at 1 mg/kg, po. It is filed as ADME, organism-based. On the set-up: dose 1 mg/kg, route oral. As to conditions: in vivo.
The nature of data set [5]: Cmax in rat at 1 mg/kg, po. It is filed as ADME, organism-based. Further details: dose 1 mg/kg, route oral. Conditions: in vivo.
The next data set concerns Mus musculus. The data set is described as follows: Immunomodulatory activity in po dosed mouse assessed as reduction in peripheral lymphocyte count measured at 4 hrs. It is filed as functional.
The target in data set [6] is Sphingosine 1-phosphate receptor 3 (Homo sapiens, UniProt Q99500). The data set is described as follows: Agonist activity at human S1P3 receptor expressed in CHO cells assessed as intracellular calcium levels. It is filed as functional, cell-based. In general terms: A change in cytosolic calcium serves as a functional read-out for many receptors and channels.
Chain of Sphingosine 1-phosphate receptor 3 (Q99500 whole entry): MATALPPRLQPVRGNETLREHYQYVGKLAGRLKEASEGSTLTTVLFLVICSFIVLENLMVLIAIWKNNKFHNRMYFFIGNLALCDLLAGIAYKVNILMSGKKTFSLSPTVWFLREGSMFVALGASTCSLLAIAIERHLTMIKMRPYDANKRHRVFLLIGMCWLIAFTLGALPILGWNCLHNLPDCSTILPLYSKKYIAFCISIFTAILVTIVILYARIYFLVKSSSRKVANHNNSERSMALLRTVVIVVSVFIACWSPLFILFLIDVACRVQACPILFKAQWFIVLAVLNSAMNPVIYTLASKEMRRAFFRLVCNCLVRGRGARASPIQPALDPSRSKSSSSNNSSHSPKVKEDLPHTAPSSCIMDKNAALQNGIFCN
Data set [7] in a line: Volume of distribution at steady state in rat at 1 mg/kg, iv. It is filed as ADME, organism-based. Conditions: in vivo, read-out: Vdss. Further details: dose 1 mg/kg, route intravenous.
The nature of data set [8]: Bioavailability in rat at 1 mg/kg, iv. It is filed as ADME, organism-based. Conditions: in vivo.
The target in data set [9] is Sphingosine 1-phosphate receptor 1 (Homo sapiens, UniProt P21453). In words: Agonist activity at human S1P1 receptor expressed in CHO cells assessed as intracellular calcium levels. It is filed as functional, cell-based.
Chain of Sphingosine 1-phosphate receptor 1 (P21453 whole entry): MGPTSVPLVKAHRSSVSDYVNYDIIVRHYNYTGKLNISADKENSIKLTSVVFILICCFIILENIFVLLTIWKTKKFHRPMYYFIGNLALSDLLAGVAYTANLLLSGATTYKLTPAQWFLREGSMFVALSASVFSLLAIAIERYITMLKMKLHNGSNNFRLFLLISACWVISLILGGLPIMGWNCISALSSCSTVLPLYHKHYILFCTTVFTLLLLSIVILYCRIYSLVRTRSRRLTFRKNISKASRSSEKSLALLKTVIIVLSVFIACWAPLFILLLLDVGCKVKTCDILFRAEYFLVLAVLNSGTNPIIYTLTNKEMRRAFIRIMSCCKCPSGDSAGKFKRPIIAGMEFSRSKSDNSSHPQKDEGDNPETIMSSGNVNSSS
A short description of data set [10]: Total clearance in rat at 1 mg/kg, iv. It is filed as ADME, organism-based. On the set-up: dose 1 mg/kg, route intravenous. Conditions: in vivo.

On to `CC1=C(CNCCC(=O)O)CCc2cc(OCCCCc3ccccc3)ccc21`, for which the half-life (in general, the time in which the quantity being followed falls by half) in data set [1] is 5.2 h; in data set [4], 6.9 h. Moreover, the results for the AUC(0-inf) in data set [2] and in data set [3] were 2400 ng·h/mL and 5400 ng·h/mL, respectively. The Cmax (in general, the highest concentration seen after dosing) in data set [5] worked out at 168 ng/mL. Further, the median effective dose (ED50) (as a rule, the dose at which the effect has come halfway, by size or by number of responders) in the data set on Mus musculus worked out at 0.34 mg/kg. For the same molecule, the results for the pEC50 in [6] and in [9] were under 5.00 and 7.96, respectively. For the same molecule, the Vd in data set [7] was 0.86 L/kg. Besides, the bioavailability (in general, the share of a dose that reaches the circulation, judged against a reference dose that is usually intravenous) in data set [8] amounted to 44%. Besides, the clearance (as a rule, the volume of plasma or blood freed of the substance per unit of time) in data set [10] turned out to be 3.1 mL/min/kg.
As to `O=C(O)CCNC/C=C/c1ccc(OCCCCc2ccccc2)cc1`, the pEC50 – broadly, −log10 of the EC50, conventionally taken in molar units – in data set [6] is under 5.00; in data set [9], 6.92.
Turning to `O=C(O)CCNCC1=Cc2ccc(OCCCCc3ccccc3)cc2CC1`, the pEC50 in [6] is 5.11; in [9], 7.24.
For `CC1=C(CN2CC(C(=O)O)C2)CCCc2cc(OCCCCc3ccccc3)ccc21`, the pEC50 in data set [6] was under 5.00; in [9], 5.89.
In the case of `Cc1cc(OCCCCc2ccccc2)ccc1/C=C/CNCCC(=O)O`, the negative-log EC50 (pEC50) in data set [6] was under 5.00; in data set [9] it was 7.44.
Consider `CC1=C(CN2CC(C(=O)O)C2)CCc2cc(OCCCCc3ccccc3)ccc21`, for which the half-life in [1] is 11 h; in data set [4], 16.7 h. Besides, the AUC(0-inf) – broadly, total exposure, with the tail of the curve extrapolated – in [2] was 3800 ng·h/mL; in [3], 4400 ng·h/mL. In data set [5], this molecule had a Cmax of 181 ng/mL. For the same molecule, the ED50 with Mus musculus amounted to 0.16 mg/kg. The pEC50 is under 5.00 in [6] and 8.54 in data set [9]. In addition, the Vd in [7] is 2.86 L/kg. For the same molecule, the bioavailability in data set [8] was 85%. Also, the clearance in [10] is 4 mL/min/kg.
Take `Cc1cc(/C=C/CNCCC(=O)O)ccc1OCCCCc1ccccc1`: the pEC50 is under 5.00 in [6] and 6.55 in data set [9].
With `O=C(O)C1CN(C/C=C/c2ccc(OCCCc3ccccc3)cc2)C1`, the pEC50 is 5.48 in data set [6] and 7.37 in data set [9].
For the molecule `O=C(O)CCNC/C=C/c1ccc(OCCCc2ccccc2)cc1`, the 50% effective dose (ED50) in the data set on Mus musculus was found to be 4.6 mg/kg.
With `O=C(O)CCNC/C=C/c1ccc(OCCCCc2ccccc2)cc1Cl`, the pEC50 in data set [6] was 5.14; in data set [9], 7.62.
With `C/C(=C\c1ccc(OCCCCc2ccccc2)cc1)CNCCC(=O)O`, the figures for the pEC50 in data set [6] and in data set [9] were 5.52 and 8.00, respectively.
Taken in the same sequence, the figures for `O=C(O)C1CCN(C/C=C/c2ccc(OCCCc3ccccc3)cc2)CC1` were under 5.00 and 5.62.
Consider `COc1cc(OCCCCc2ccccc2)ccc1/C=C/CNCCC(=O)O`, for which the pEC50 in data set [6] is under 5.00; in data set [9] it was 6.64.
Taken in the same sequence, the figures for `O=C(O)CCNC/C=C/c1ccc(OCCCCCc2ccccc2)cc1` were 5.17 and 6.82.
